Here are results for five molecules from PMC6531345 (Bioorganic & medicinal chemistry letters, 2019).

The test system of one assay is native MDH. To be noted: counter-screen; cited from earlier work. In general terms: The purpose of a counterscreen is to sort out artefacts and off-target activity.
Another assay deals with native Rho. As to conditions: counter-screen; cited from earlier work.
Assay [1] concerns the target T1, M. tuberculosis PtpB (Mycobacterium tuberculosis, UniProt I6WXK4). It is filed as biochemical. As to conditions: pNPP substrate, 6–8 replicates.
Assay [2] addresses T1, M. tuberculosis PtpB. As to conditions: cited from earlier work.
In a further assay the test system is E. coli GroEL/ES. As to conditions: high-throughput screen; cited from earlier work.
The test system of the next assay is ESKAPE pathogens. To be noted: panel of Gram-positive and Gram-negative bacteria; cited from earlier work.
The subject of a further assay is human HSP60/10. As to conditions: in vitro; cited from earlier work.

Structures are written as SMILES.

T1 sequence (I6WXK4 whole entry, looked up): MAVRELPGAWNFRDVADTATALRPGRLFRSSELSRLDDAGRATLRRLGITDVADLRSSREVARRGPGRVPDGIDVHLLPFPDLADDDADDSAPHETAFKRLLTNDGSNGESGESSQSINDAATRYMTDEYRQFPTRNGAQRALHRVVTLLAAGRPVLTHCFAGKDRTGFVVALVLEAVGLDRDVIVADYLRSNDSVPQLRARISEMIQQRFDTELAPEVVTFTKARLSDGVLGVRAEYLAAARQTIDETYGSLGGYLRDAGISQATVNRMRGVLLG

For the molecule `O=[N+]([O-])c1cc(S(=O)(=O)Nc2ccc(-c3nc4cc(NS(=O)(=O)c5ccc(Cl)s5)ccc4o3)cc2)ccc1Cl` [28R], in the assay with native MDH, the “inhibition of native MDH” value was “only weakly”. The “inhibition of native Rho” value in the assay with native Rho is on record as “only weakly”.

Turning to `O=S(=O)(Nc1ccc2oc(-c3ccccc3)nc2c1)c1cccc(O)c1` [L51-m], the “dose-response behaviour on PtpB phosphatase activity” value on M. tuberculosis PtpB [1] is “bi-phasic response where compounds activate then inhibit phosphatase activity”.

For `O=C(O)C(=O)N(Cc1cccc(Cl)c1)Cc1ccc(S(=O)(=O)NCCC(c2ccccc2)c2ccccc2)s1` [OMTS, (oxalylamino-methylene)-thiophene sulfonamide], the “inhibition of M. tuberculosis PtpB” value at M. tuberculosis PtpB [2] is “potent and selective inhibitor”.

On to `Cc1ccc(S(=O)(=O)Nc2ccc(-c3nc4ccc(NS(=O)(=O)c5ccc(C)cc5)cc4[nH]3)cc2)cc1` [compound 1], for which the GroEL/ES inhibition entry with E. coli GroEL/ES is on record as “one of our most potent GroEL/ES inhibitors”. For the same molecule, the antibacterial efficacy entry in the assay on ESKAPE pathogens is listed as “lacked any appreciable antibacterial efficacy”.

In the case of `Cc1ccc(C(=O)Nc2ccc(S(=O)(=O)O)c3cc(S(=O)(=O)O)cc(S(=O)(=O)O)c23)cc1NC(=O)c1cccc(NC(=O)Nc2cccc(C(=O)Nc3cc(C(=O)Nc4ccc(S(=O)(=O)O)c5cc(S(=O)(=O)O)cc(S(=O)(=O)O)c45)ccc3C)c2)c1` [suramin], the “inhibition of human HSP60/10” value in the assay on human HSP60/10 is reported as “can inhibit human HSP60/10 in vitro”.
